In article PMC3430861, “The pharmacological profile of ELIC, a prokaryotic GABA-gated receptor” (Neuropharmacology, 2012):

Target: T1, ELIC (Dickeya chrysanthemi, UniProt P0C7B7, INS163G)
T1 construct: expressed in transfected cells; host or cells: Xenopus laevis oocytes injected with cRNA
Test: cell-based
Type: cell-based, Erwinia chrysanthemi
Experimental: Xenopus laevis oocyte-positive females were purchased from NASCO (Fort Atkinson, Wisconsin, USA) and maintained according to standard methods.
The ELIC sequence (Genbank accession number POC7B7) was purchased from Genscript as a synthetic gene with optimized codon usage for expression in Escherichia coli. […] Stage V and VI oocytes were injected with 20 ng cRNA, and currents recorded 1–3 days post-injection.

Row | SMILES | EC50 [mM]
1 | N[C@@H](Cc1ccc(O)cc1)C(=O)O [Tyrosine] | > 10
2 | N[C@@H](CCC(=O)O)C(=O)O [L-glutamate] | > 10
3 | N[C@@H](CS)C(=O)O [Cysteine] | > 10
4 | N[C@@H](CO)C(=O)O [Serine] | > 10
5 | N[C@@H](Cc1c[nH]c2ccccc12)C(=O)O [Tryptophan] | > 10
6 | NCCCC[C@H](N)C(=O)O [Lysine] | > 10
7 | C[C@@H](O)[C@H](N)C(=O)O [Threonine] | > 10
8 | CC(C)[C@H](N)C(=O)O [Valine] | > 10
9 | N[C@@H](Cc1ccccc1)C(=O)O [Phenylalanine] | > 10
10 | CSCC[C@H](N)C(=O)O [Methionine] | > 10
11 | O=C1CCCO1 [γ-butyrolactone] | > 10
12 | O=C(O)CCC(=O)O [succinic acid] | > 10
13 | N[C@@H](Cc1c[nH]cn1)C(=O)O [Histidine] | > 10
14 | O=C(O)[C@@H]1CCC(O)=N1 [pyroglutamate] | > 10
15 | NC(=O)C[C@H](N)C(=O)O [Asparagine] | > 10
16 | NC(=O)CC[C@H](N)C(=O)O [Glutamine] | > 10
17 | NCCC(=O)O [β-alanine] | > 10
18 | NCc1cc(=O)[nH]o1 [muscimol] | > 10
19 | N[C@@H](CC(=O)O)C(=O)O [Aspartate] | > 10
20 | C[C@H](N)C(=O)O [Alanine] | > 10
21 | CC[C@H](C)[C@H](N)C(=O)O [Isoleucine] | > 10
22 | N=C(N)NCCC[C@H](N)C(=O)O [Arginine] | > 10
23 | CC(C)C[C@H](N)C(=O)O [Leucine] | > 10
24 | O=C(O)[C@@H]1CCCN1 [Proline] | > 10
